Data reported in patent publication US10947242B2, “[1,2,4]triazolo[1,5and#8208;A]pyrimidine compounds as PDE2 inhibitors” (Janssen Pharmaceutica NV, priority 2016, dated 2021).
Like-named read-outs stand apart in the source and are kept apart here.

Tests used:
Type in all cases: biochemical
[1] = target: T1, Human recombinant PDE10A (hPDE10A) (Homo sapiens, UniProt Q9Y233); test: In vitro assay PDE10A, human clone (SPA, 3H-cAMP hydrolysis)
T1 construct: His tag (inferred from metal chelate purification); made in house; host or cells: Sf9 insect cells (baculovirus)
Description: Rat recombinant PDE10A (rPDE10A2) was expressed in Sf9 cells using a recombinant rPDE10A baculovirus construct. […] Tested compounds were dissolved and diluted in 100% DMSO to a concentration 100 fold of the final concentration in the assay. Human recombinant PDE10A ([…]) was expressed in Sf9 cells using a recombinant hPDE10A baculovirus that was made and amplified in house. […] Compound dilutions (0.4 μl) were added in 384 well plates to 20 μl of incubation buffer (50 mM Tris pH 7.8, 8.3 mM MgCl2, 1.7 mM EGTA). 10 μl of rPDE10A or hPDE10A enzyme in incubation buffer was added and the reaction was started by addition of 10 μl substrate to a final concentration of 60 nM cAMP and 0.008 μCi ^3H-cAMP. The reaction was incubated for 60 minutes at room temperature. […] After sedimentation of the beads during 30 minutes the radioactivity was measured in a Perkin Elmer Topcount scintillation counter and results were expressed as cpm. For blanc values the enzyme was omitted from the reaction and replaced by incubation buffer. Control values were obtained by addition of a final concentration of 1% DMSO instead of compound.

[2] = target: T2, Human recombinant PDE2A (hPDE2A) (Homo sapiens, UniProt O00408); test: In vitro assay PDE2A (SPA, 3H-cGMP hydrolysis); conditions: for Emax: read-out: hPDE2A Emax; for IC50: read-out: hPDE2A pIC50 (converted)
T2 construct: His tag (inferred from metal chelate purification); made in house; host or cells: Sf9 insect cells (baculovirus)

[3] = target: T3, Human recombinant PDE3A (hPDE3A) (Homo sapiens, UniProt Q14432); test: In vitro assay PDE3A (SPA, 3H-cAMP hydrolysis); conditions: for IC50: hPDE3B pIC50, read-out: pIC50 (converted); for Emax: read-out: hPDE3B Emax, read-out: Emax;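 on all read-outs here: the method names PDE3A and the table heading PDE3B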
T3 construct: purchased Scottish Biomedical; host or cells: Sf9 insect cells
Description: Human recombinant PDE3A (hPDE3A) was supplied as a partially purified insect cell lysate by Scottish Biomedical, it was cloned from human brain and expressed in Sf9 cells. Tested compounds were dissolved and diluted in 100% DMSO to a concentration 100 fold of the final concentration in the assay. Compound dilutions (0.4 μl) were added in 384 well plates to 20 μl of incubation buffer (50 mM Tris pH 7.8, 8.3 mM MgCl2, 1.7 mM EGTA). 10 μl of hPDE3A enzyme in incubation buffer was added and the reaction was started by addition of 10 μl substrate to a final concentration of 0.4 μM cAMP and 2.4 μCi/ml [^3H]-cAMP. The reaction was incubated for 60 min at room temperature. […] After sedimentation of the beads during 30 min the radioactivity was measured in a Perkin Elmer Topcount scintillation counter and results were expressed as cpm. For blanc values the enzyme was omitted from the reaction and replaced by incubation buffer. Control values were obtained by addition of a final concentration of 1% DMSO instead of compound.

[4] = human clone (h), default, read-out: hPDE10A2 Emax
[5] = human clone (h), default, read-out: hPDE10A2 pIC50 (converted)
[6] = human recombinant PDE2A, 10 μM cGMP substrate
[7] = human clone by default (no (r) mark), read-out: hPDE10A2 or rPDE10A2 Emax
[8] = human clone by default (no (r) mark), read-out: hPDE10A2 or rPDE10A2 pIC50 (converted)

T2 sequence (O00408 whole entry): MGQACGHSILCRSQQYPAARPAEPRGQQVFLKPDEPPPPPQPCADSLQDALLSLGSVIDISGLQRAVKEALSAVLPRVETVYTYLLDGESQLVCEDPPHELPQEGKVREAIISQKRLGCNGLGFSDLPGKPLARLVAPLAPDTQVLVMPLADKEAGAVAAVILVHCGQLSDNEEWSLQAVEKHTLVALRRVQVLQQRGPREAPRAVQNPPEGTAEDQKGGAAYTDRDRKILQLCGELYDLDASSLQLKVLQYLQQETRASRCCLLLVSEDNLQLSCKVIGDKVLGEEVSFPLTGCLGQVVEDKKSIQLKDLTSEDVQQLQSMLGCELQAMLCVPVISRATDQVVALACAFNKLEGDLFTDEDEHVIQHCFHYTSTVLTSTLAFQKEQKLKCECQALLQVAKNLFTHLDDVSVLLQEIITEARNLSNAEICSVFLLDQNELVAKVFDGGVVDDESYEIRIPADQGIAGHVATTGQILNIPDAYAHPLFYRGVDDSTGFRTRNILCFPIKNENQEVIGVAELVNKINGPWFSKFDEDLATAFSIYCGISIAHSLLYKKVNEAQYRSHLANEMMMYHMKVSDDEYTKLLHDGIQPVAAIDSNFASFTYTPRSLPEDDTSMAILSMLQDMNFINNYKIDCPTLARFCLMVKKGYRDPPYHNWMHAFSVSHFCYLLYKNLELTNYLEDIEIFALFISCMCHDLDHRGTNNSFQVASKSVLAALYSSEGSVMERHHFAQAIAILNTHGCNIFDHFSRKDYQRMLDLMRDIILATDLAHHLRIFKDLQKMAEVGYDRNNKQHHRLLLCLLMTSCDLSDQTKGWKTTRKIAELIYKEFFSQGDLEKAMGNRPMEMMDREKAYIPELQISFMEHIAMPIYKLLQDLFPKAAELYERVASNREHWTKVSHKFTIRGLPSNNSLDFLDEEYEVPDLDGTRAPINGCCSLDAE
T1 sequence (Q9Y233 267-1055): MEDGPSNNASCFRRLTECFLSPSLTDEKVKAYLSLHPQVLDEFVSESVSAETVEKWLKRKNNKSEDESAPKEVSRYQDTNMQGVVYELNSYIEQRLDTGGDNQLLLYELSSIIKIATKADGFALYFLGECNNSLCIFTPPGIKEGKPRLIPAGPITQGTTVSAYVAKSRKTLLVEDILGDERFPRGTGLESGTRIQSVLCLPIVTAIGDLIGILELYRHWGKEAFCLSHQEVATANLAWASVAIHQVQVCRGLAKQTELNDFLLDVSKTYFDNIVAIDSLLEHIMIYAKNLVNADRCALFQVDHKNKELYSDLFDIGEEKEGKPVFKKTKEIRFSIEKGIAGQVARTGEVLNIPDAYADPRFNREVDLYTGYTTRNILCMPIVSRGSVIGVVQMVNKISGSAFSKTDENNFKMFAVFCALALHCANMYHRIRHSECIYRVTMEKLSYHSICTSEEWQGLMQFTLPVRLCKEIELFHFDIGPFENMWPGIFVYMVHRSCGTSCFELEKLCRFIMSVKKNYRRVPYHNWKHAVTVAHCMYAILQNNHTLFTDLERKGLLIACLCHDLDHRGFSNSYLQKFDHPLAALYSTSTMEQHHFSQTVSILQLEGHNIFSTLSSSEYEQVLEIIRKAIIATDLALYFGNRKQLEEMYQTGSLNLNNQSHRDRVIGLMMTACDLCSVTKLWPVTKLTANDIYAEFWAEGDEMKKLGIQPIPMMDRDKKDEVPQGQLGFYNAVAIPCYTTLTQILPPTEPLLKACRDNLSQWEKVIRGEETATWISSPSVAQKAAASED
T3 sequence (Q14432 whole entry): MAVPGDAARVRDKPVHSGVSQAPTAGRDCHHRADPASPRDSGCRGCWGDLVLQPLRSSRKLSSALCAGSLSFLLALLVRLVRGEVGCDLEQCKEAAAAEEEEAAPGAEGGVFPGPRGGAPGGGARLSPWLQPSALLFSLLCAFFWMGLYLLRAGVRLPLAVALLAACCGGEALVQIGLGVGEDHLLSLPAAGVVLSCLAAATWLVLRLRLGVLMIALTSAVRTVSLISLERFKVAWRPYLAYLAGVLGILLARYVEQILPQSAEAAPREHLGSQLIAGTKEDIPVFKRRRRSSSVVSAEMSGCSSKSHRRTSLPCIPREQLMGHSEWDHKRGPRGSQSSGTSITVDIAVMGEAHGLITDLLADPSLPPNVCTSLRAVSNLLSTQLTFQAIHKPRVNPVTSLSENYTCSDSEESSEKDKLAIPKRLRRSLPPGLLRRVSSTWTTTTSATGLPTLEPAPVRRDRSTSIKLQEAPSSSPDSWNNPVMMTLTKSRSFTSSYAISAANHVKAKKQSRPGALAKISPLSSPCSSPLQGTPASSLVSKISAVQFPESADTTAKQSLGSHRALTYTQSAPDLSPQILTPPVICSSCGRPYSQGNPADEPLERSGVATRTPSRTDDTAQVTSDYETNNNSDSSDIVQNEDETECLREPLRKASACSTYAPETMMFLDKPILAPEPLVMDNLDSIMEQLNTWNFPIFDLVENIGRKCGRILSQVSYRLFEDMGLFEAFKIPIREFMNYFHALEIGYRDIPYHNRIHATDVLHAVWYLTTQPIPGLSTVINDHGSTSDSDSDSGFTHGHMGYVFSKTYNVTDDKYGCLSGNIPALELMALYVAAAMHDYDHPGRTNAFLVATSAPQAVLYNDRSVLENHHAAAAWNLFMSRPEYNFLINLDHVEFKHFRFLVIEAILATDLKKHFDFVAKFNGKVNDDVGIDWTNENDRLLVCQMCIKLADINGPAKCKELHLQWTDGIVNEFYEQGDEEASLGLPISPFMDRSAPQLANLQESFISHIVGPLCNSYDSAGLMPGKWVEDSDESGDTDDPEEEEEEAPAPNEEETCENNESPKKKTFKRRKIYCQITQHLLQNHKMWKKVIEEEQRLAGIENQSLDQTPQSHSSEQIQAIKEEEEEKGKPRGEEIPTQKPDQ

Structure (SMILES)	Emax [1, 4] [%]	IC50 [1, 5] [nM]	Emax [2] [%]	IC50 [2] [nM]	IC50 [3] [nM]	Emax [3] [%]	IC50 [2, 6] [nM]	Emax ([2]; human recombinant PDE2A) [%]	Emax [1, 7] [%]	IC50 [1, 8] [nM]
C[C@@H]1CCN(C(=O)c2cnc3ccccc3c2O)C[C@H]1c1cc(C(F)F)nc2ncnn12 [Compound 146]	76	3310	100	37.2	1660	85	–	–	–	–
COc1c(C)cc(C(=O)N2CC[C@@H](C)[C@@](F)(c3cc(C(F)F)nc4ncnn34)C2)cc1C [Compound 75]	27	> 10000	81	2950	> 10000	22	2950	81	–	–
CC(C)Oc1cc(C(=O)N2CC[C@@H](C)[C@H](c3cc(C(F)F)nc4ncnn34)C2)cc(C(C)C)c1 [Compound 144]	96	468	100	34.7	2400	86	34.7	100	–	–
C[C@@H]1CCN(C(=O)c2ncc[nH]2)C[C@H]1c1cc(C(F)F)nc2ncnn12 [Compound 240]	51	9120	90	1550	> 10000	9	1550	90	51	9120
COc1cc(C(=O)N2CC[C@@H](C)[C@H](c3cc(C(F)F)nc4ncnn34)C2)cc(C2CC2)n1 [Compound 113]	99	38	99	1	1120	88	1	99	–	–
C[C@@H]1CCN(C(=O)c2ncc(C#N)cc2Cl)C[C@H]1c1cc(C(F)F)nc2ncnn12 [Compound 238]	48	–	94	380	> 10000	35	380	94	48	–
CCCC[C@@H]1CCN(C(=O)c2cc(C)nc(C)c2)C[C@H]1c1cc(C(F)F)nc2ncnn12 (mixture of isomers) [Compound 44]	79	2570	100	9.55	> 10000	39	9.55	100	–	–
CC(C)(C)c1ccc(C(=O)N2[C@H]3CC[C@H](c4cc(C(F)F)nc5ncnn45)[C@@H]2CC3)o1 [Compound 348]	–	–	99	33.9	4470	70	–	–	92	1290
Cc1cc(C(=O)N2[C@H]3CC[C@@H]2[C@H](c2cc(C(F)F)nc4ncnn24)CC3)cc(C(F)(F)F)n1 [Compound 285]	–	–	65	6920	> 10000	21	–	–	37	> 10000
COc1cc(C(=O)N2[C@H]3CC[C@H](c4cc(C(F)F)nc5ncnn45)[C@@H]2CC3)ccc1Cl [Compound 336]	–	–	101	18.6	3240	78	–	–	87	1910
C[C@@H]1CCN(C(=O)c2c(Cl)cncc2Cl)C[C@H]1c1cc(C(F)F)nc2ncnn12 [Compound 268]	39	> 10000	82	1910	> 10000	13	–	–	39	> 10000
COc1cccc2cc(C(=O)N3CC[C@@H](C)[C@H](c4cc(C(F)F)nc5ncnn45)C3)oc12 [Compound 105]	101	29.5	101	0.871	1350	90	0.871	101	–	–
Cc1cc(C(=O)N2[C@H]3CC[C@H](c4cc(C(F)F)nc5ncnn45)[C@@H]2CC3)c(F)cn1 [Compound 86]	40	> 10000	100	50.1	> 10000	34	–	–	–	–
